From ChEMBL document CHEMBL1158887, “Novel chromone derivatives from the fungus Aspergillus versicolor isolated from the marine sponge Xestospongia exigua” (J Nat Prod, 2003)
Activity calls are given as the source filed them. No cut-off for these calls is given here.

Legend:
Assay type in all cases: functional, organism-based
Escherichia coli = assay: Antimicrobial activity against Escherichia coli DMS 10290 at 5 and 10 ug after 24 hrs by agar diffusion method
Bacillus subtilis = assay: Antimicrobial activity against Bacillus subtilis DMS 2109 at 5 and 10 ug after 24 hrs by agar diffusion method
Saccharomyces cerevisiae = assay: Antimicrobial activity against Saccharomyces cerevisiae DMS 1333 at 5 and 10 ug after 24 hrs by agar diffusion method

SMILES | Activity (Escherichia coli) | Activity (Bacillus subtilis) | Activity (Saccharomyces cerevisiae)
COC1OC(C)=Cc2ccc3c(=O)c(C)c(C)oc3c21 (stereo not drawn) | inactive | inactive | inactive
COC1(C)Cc2ccc3c(=O)c(C)c(C)oc3c2CO1 (stereo not drawn) | inactive | inactive | inactive
Cc1cc2ccc3c(=O)c(C)c(C)oc3c2cn1 | inactive | – | inactive
